Reference: article PMC9458453, “What is a supercoiling-sensitive gene? Insights from topoisomerase I inhibition in the Gram-negative bacterium Dickeya dadantii” (Nucleic Acids Research, 2022)

Experiments:
topoisomerase I (topoI) [1] = target: T1, topoisomerase I (topoI) (Dickeya dadantii, UniProt E0SBX6); assay: pUC18 plasmid relaxation assay on agarose gel with purified topoI; assay type: biochemical
T1 construct: gene topA; N-terminally 6xhis-tagged topoisomerase I

topoisomerase I (topoI) [2] = target: T2, topoisomerase I (topoI) (Escherichia coli, UniProt P06612); assay: plasmid relaxation assay on agarose gel with purified commercial topoI; assay type: biochemical
T2 construct: gene topA; commercial topoI (NEB)
T2 sequence (P06612 whole entry): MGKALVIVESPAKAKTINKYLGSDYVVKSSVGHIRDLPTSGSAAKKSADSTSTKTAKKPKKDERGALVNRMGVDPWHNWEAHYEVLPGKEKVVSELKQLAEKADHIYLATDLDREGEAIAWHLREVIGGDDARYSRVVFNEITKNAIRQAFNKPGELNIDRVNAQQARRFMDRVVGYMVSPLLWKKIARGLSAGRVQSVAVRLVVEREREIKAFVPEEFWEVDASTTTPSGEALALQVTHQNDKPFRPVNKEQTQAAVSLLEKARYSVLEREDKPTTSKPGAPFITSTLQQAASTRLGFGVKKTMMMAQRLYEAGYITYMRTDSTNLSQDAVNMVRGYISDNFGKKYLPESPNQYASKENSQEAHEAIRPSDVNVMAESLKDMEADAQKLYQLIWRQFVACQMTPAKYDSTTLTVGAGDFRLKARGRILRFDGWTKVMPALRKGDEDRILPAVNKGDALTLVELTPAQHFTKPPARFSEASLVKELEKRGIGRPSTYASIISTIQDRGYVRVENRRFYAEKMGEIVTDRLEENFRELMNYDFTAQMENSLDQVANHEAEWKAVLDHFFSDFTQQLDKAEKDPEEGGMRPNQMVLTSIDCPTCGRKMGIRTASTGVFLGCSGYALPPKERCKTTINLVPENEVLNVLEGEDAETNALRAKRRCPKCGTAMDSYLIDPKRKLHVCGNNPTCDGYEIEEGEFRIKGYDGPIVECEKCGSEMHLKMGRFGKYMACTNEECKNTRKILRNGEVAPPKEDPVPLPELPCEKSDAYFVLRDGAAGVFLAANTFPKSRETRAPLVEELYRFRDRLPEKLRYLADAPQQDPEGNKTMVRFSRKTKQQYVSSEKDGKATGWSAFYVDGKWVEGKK

T1 sequence (E0SBX6 entry or part of it): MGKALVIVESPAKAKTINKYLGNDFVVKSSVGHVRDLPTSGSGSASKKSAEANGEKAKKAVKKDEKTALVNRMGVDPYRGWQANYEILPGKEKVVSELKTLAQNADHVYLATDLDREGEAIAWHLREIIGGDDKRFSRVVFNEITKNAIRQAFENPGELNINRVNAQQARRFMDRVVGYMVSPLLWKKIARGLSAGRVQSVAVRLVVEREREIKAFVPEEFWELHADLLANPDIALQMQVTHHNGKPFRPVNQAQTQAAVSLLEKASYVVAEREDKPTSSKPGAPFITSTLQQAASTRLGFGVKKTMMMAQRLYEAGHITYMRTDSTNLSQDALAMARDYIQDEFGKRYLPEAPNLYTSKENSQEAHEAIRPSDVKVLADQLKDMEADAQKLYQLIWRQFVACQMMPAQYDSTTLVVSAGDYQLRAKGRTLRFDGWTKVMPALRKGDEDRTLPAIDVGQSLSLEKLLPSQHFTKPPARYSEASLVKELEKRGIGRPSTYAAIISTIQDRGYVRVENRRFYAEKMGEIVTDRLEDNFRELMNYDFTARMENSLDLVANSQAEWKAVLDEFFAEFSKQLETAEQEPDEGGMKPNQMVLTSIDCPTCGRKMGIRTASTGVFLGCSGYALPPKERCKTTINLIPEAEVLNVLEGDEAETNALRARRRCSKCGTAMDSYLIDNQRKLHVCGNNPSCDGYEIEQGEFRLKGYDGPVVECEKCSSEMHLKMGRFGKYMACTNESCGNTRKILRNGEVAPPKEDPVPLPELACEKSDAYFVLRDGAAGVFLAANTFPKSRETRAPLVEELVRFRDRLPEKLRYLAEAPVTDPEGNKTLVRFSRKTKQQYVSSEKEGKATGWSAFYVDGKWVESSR

For `CNCCc1cc2c(c3c1ccc1cc4c(cc13)OCO4)OCO2` [SCN, seconeolitsine], the IC50 (topoisomerase I (topoI) [1]) was 4 µM and the IC50 (topoisomerase I (topoI) [2]) was about 7 µM.
